In patent US20260191998A1, “INDOLE PHTHALOCYANINE COMPOUND, PREPARATION METHOD THEREFOR, AND USE THEREOF IN TUMOR DIAGNOSIS IMAGING” (JIANGSU YAHONG MEDITECH CO., LTD., priority 2022, published 2026):
Counter-ions that a name gives are not always drawn.

Experiment: UV-VIS absorption spectra (optical property test)
Format: physicochemical
Conditions: 10 μM, DMSO solution; for Absorbance × 10^4: at maximum absorption peak
Experimental: The UV-VIS absorption spectra of the compounds (10 μM, DMSO solution) were detected using Shimadzu UV2600 spectrophotometer, and the maximum absorption peak and absorbance of each compound were obtained.

| SMILES | Absorbance × 10^4 | Absorption peak |
| --- | --- | --- |
| C[N+]1=C(/C=C/C2=C(Cl)C(=C/C=C3/N(CCOCCOCCOCc4ccccc4)c4ccccc4C3(C)C)/CC2)C(C)(C)c2ccccc21 [Example 55, 2-((E)-2-((E)-3-(2-((E)-1-(2-(2-(2-(benzyloxy)ethoxy)ethoxy)ethyl)-3,3-dimethylindolin-2-ylidene)ethenyl)-2-chlorocyclopent-1-en-1-yl)ethenyl)-1,3,3-trimethyl-3H-indol-1-ium Formate] | 3.48 | – |
| C[N+]1=C(/C=C/C2=C(Cl)C(=C/C=C3/N(CCOCCOCCOCc4ccccc4)c4ccccc4C3(C)C)/CCC2)C(C)(C)c2ccccc21 [Example 56, 2-((E)-2-((E)-3-(2-((E)-1-(2-(2-(2-(benzyloxy)ethoxy)ethoxy)ethyl)-3,3-dimethylindolin-2-ylidene)ethenyl)-2-chlorocyclohex-1-en-1-yl)ethenyl)-1,3,3-trimethyl-3H-indol-1-ium 2,2,2-trifluoroacetate] | 1.85 | – |
| C[n+]1cccc2c1N=C(/C=C/C1=C(Cl)C(=C/C=C3/N(CCCCCC(=O)O)c4ccccc4C3(C)C)/CC1)C2(C)C [Example 63, 2-((E)-2-((E)-3-(2-((E)-1-(5-carboxypentyl)-3,3-dimethylindolin-2-ylidene)ethenyl)-2-chlorocyclopent-1-en-1-yl)ethenyl)-3,3,7-trimethyl-3H-pyrrolo[2,3-b]pyridin-7-ium Chloride] | 0.31 | – |
| C[n+]1cccc2c1N=C(/C=C/C1=C(Cl)C(=C/C=C3/N(CCCCCC(=O)O)c4ccccc4C3(C)C)/CCC1)C2(C)C [Example 64, 2-((E)-2-((E)-3-(2-((E)-1-(5-carboxypentyl)-3,3-dimethylindolin-2-ylidene)ethenyl)-2-chlorocyclohex-1-en-1-yl)ethenyl)-3,3,7-trimethyl-3H-pyrrolo[2,3-b]pyridin-7-ium Chloride] | 0.5 | – |
| CC[N+]1=C(/C=C/C2=C(Cl)C(=C/C=C3/N(CCCCCC(=O)NCCCCCNC(=O)CCCCCN4/C(=C/C=C5\CCCC(/C=C/C6=[N+](CC)c7ccccc7C6(C)C)=C5Cl)C(C)(C)c5ccccc54)c4ccccc4C3(C)C)/CCC2)C(C)(C)c2ccccc21 [Example 77, 2,2′-((1E,1′E)-((3E,3′E)-(((2E,2′E)-((pentane-1,5-diylbis(azanediyl))bis(6-oxohexane-6,1-diyl))bis(3,3-dimethylindolin-1-yl-2-ylidene))bis(ethane-2,1-diylidene))bis(2-chlorocyclohex-1-en-1-yl-3-ylidene))bis(ethene-2,1-diyl))bis(1-ethyl-3,3-dimethyl-3H-indol-1-ium) Chloride] | 4.344 | 794.5 nm |
| CC[N+]1=C(/C=C/C2=C(Cl)C(=C/C=C3/N(CCCCC(=O)NCCCNC(=O)CCCCN4/C(=C/C=C5\CCCC(/C=C/C6=[N+](CC)c7ccccc7C6(C)C)=C5Cl)C(C)(C)c5ccccc54)c4ccccc4C3(C)C)/CCC2)C(C)(C)c2ccccc21.[Cl-].[Cl-] [Example 82] | 3.686 | 793.5 nm |
| C[N+]1=C(/C=C/C2=C(Cl)C(=C/C=C3/N(CCCCCC(=O)Nc4ccccc4)c4ccccc4C3(C)C)/CC2)C(C)(C)c2ccccc21 [Example 83, 2-((E)-2-((E)-2-chloro-3-(2-((E)-3,3-dimethyl-1-(6-oxo-6-(anilino)hexyl)indol-2-methylene)ethylidene)cyclopent-1-en-1yl)ethenyl)-1,3,3-trimethyl-3H-indol-1-ium Chloride] | 3.079 | 820 nm |
| CC1(C)C(/C=C/C2=C(Cl)C(=C/C=C3/N(CCCCCC(=O)O)c4ccccc4C3(C)C)/CC2)=[N+](CCCCCC(=O)O)c2ccccc21 [Example 84, 1-(5-carboxypentyl)-2-((E)-2-((E)-3-(2-((E)-1-(5-carboxypentyl)-3,3-dimethylindolin-2-ylidene)ethenyl)-2-chlorocyclopent-1-en-1-yl)ethenyl)-3,3-dimethyl-3H-indol-1-ium Chloride] | 2.41 | – |
| CC1(C)C(/C=C/C2=C(Cl)C(=C/C=C3/N(CCCCCC(=O)O)c4ccccc4C3(C)C)/CCC2)=[N+](CCCCCC(=O)Oc2ccccc2)c2ccccc21 [Example 85A] | 2.239 | 796.5 nm |
| CC1(C)C(/C=C/C2=C(Cl)C(=C/C=C3/N(CCCCCC(=O)O)c4ccccc4C3(C)C)/CCC2)=[N+](CCCCCC(=O)O)c2ccccc21 [Example 85B] | 1.397 | 796.5 nm |
| Cc1cccc(C)c1OC(=O)CCCCC[N+]1=C(/C=C/C2=C(Cl)C(=C/C=C3/N(CCCCCC(=O)O)c4ccccc4C3(C)C)/CC2)C(C)(C)c2ccccc21 [Example 88, 2-((E)-2-((E)-3-(2-((E)-1-(5-carboxypentyl)-3,3-dimethylindolin-2-ylidene)ethenyl)-2-chlorocyclopent-1-en-1-yl)ethenyl)-1-(6-(2,6-dimethylphenoxy)-6-oxohexyl)-3,3-dimethyl-3H-indol-1-ium Acetate] | 1.75 | – |
| CC1(C)C(/C=C/C2=C(Cl)C(=C/C=C3/N(CCCCCC(=O)Oc4ccccc4)c4ccccc4C3(C)C)/CC2)=[N+](CCCCCC(=O)O)c2ccccc21.[Cl-] [Example 89] | 1.86 | – |
| CC[N+]1=C(/C=C/C2=C(Cl)C(=C/C=C3/N(CCOCCC(=O)O)c4ccccc4C3(C)C)/CCC2)C(C)(C)c2cc(C(=O)O)ccc21.[Cl-] [Example 91] | 0.46 | – |
| CC[N+]1=C(/C=C/C2=C(Cl)C(=C/C=C3/N(CCCCCC(=O)O)c4ccccc4C3(C)C)/CCC2)C(C)(C)c2cc(C(=O)O)ccc21.[Cl-] [Example 92] | 1.49 | – |
| CC[N+]1=C(/C=C/C2=C(Br)C(=C/C=C3/N(CCCCCC(=O)O)c4ccccc4C3(C)C)/CCC2)C(C)(C)c2ccccc21.[Cl-] [Example 96] | 2.45 | – |
| CC[N+]1=C(/C=C/C2=C(Sc3ccccc3)C(=C/C=C3/N(CCCCCC(=O)Oc4ccccc4)c4ccccc4C3(C)C)/CC2)C(C)(C)c2ccccc21 [Example 101] | 1.971 | 836.5 nm |
| CC1(C)C(/C=C/C2=C(Oc3ccc(S(=O)(=O)O)cc3)C(=C/C=C3/N(CCCCCC(=O)Oc4ccccc4)c4ccccc4C3(C)C)/C[N+](C)(C)C2)=[N+](CCCCCC(=O)Oc2ccccc2)c2ccccc21 [Example 103] | 2.483 | 757.5 nm |
| CC[N+]1=C(/C=C/C2=C(OC)C(=C/C=C3/N(CCCCCC(=O)Oc4ccccc4)c4ccccc4C3(C)C)/CCC2)C(C)(C)c2ccccc21 [Example 104] | 2.054 | 781.5 nm |
| CC[N+]1=C(/C=C/C2=C(Sc3ccccc3)C(=C/C=C3/N(CCCCCC(=O)Oc4ccccc4)c4ccccc4C3(C)C)/CCC2)C(C)(C)c2ccccc21.[Cl-] [Example 106] | 1.997 | 807.5 nm |
| CCN1/C(=C/C=C2\C[N+](C)(C)CC(/C=C/C3=[N+](CC)c4ccccc4C3(C)C)=C2Sc2ccccc2)C(C)(C)c2ccccc21.Cl [Example 107] | 2.028 | 778.5 nm |
